Reference: patent US20230190863A1, “PHARMACEUTICAL COMPOSITIONS AND ANTI-VIRAL USES THEREOF” (priority 2020, published 2023)
Several values for one entry are separate records, joined by “and”; a condition that tells them apart may be missing. Identical values can stand only once. Like-named read-outs stand apart in the source and are kept apart here. Ends that are not written are not given here.

Columns and labels:
SARS-CoV2 [1] = assay: microbe, parasite or virus in culture; conditions: Severe acute respiratory syndrome coronavirus 2, Vero, 24 h
SARS-CoV2 [2] = test system: SARS-CoV2
Vero cells = conditions: for Absorbance values - cytotoxicity at 24 h / Percentages of cytotoxicity at 24 h / cytotoxicity (in words): Vero cells; for Absorbance values - cytotoxicity at 24 h: MTT 570 nm; for Absorbance values - cytotoxicity at 24 h / Percentages of cytotoxicity at 24 h: replicates
Description: (§1) Antiviral activity was determined at 24 h using an immunofluorescence-based assay. Cytotoxicity was determined using an MTT assay on uninfected cells treated with the same concentrations of peptide.
(§2) Virus and peptide were left on the cells for the entire duration of the experiment (24 h).
(§3) Either immediately after infection, or 2 h after infection, 50µl of treatment from the dilution plate were transferred to the cells in each plate (infectivity and cytotoxicity). […] 50 µl of media without diluent were added to the cytotoxicity plate instead of virus. Both plates were incubated at 37° C., 5% CO2 for 24 h.
(§4) The cytotoxicity plate was treated with MTT to determine cell viability.
(§5) Cytotoxicity was detected by MTT assay following standard protocols and techniques. Briefly, the MTT reagent (Sigma, M5655) was added to the cells for 2 h at 37° C., 5% CO2, after which the media was removed and the precipitate solubilized with a mixture of 1: 1 Isopropanol: DMSO for 20 minutes. The supernatant was transferred to a clean plate and signal read at 570 nm.

[3] = test system: Influenza A virus (A / WSN /33)
[4] = test system: Influenza A virus (A / WSN /33); assay: microbe, parasite or virus in culture; conditions: MDCK-II, 24 h
MDCK-II cells = conditions: for Absorbance values - cytotoxicity at 24 h: MTT 570 nm; for Absorbance values - cytotoxicity at 24 h / Percentages of cytotoxicity at 24 h: replicates
in vitro [5] = conditions: African green monkey
Description: as §1, §2, §3, §4, §5

[6] = Preliminary safety in pilot studies using human subjects; assay type: in vivo
in vitro [7] = conditions: dog, MTT
SARS-CoV-2 = assay: Clinical study of INS peptide (GAMMORA) in patients with moderate to severe COVID-19; assay type: in vivo, human; conditions: of 15 treated, 40 mg/day SC for 9 days plus standard of care (Atripla)
[8] = uninfected Vero cells, MTT, 24 h

Compound: CCC(CC)COC(=O)[C@H](C)N[P@](=O)(OC[C@H]1O[C@@](C#N)(c2ccc3c(N)ncnn23)[C@H](O)[C@@H]1O)Oc1ccccc1 [Remdesivir, reference compound]
- EC50 (SARS-CoV2 [1]): 1.28 µM
- EC90 (SARS-CoV2 [1]): 3.9 µM
- EC99.9 (SARS-CoV2 [2]): 4.4 µM
- Absorbance values - cytotoxicity at 24 h (Vero cells; 0.01 uM): 0.1378 and 0.1381
- Absorbance values - cytotoxicity at 24 h (Vero cells; 0.03 uM): 0.147 and 0.1423
- Absorbance values - cytotoxicity at 24 h (Vero cells; 0.08 uM): 0.1483 and 0.1462
- Absorbance values - cytotoxicity at 24 h (Vero cells; 0.25 uM): 0.1554 and 0.1531
- Absorbance values - cytotoxicity at 24 h (Vero cells; 0.74 uM): 0.1606 and 0.1568
- Absorbance values - cytotoxicity at 24 h (Vero cells; 2.22 uM): 0.1599 and 0.1541
- Absorbance values - cytotoxicity at 24 h (Vero cells; 6.67 uM): 0.1198 and 0.1127
- Absorbance values - cytotoxicity at 24 h (Vero cells; 20 uM): 0.1234 and 0.1247

Compound: O=C(Nc1ccc([N+](=O)[O-])cc1Cl)c1cc(Cl)ccc1O [Niclosamide, reference compound]
- SI50 (=TC50/EC50) [3]: 16.84
- SI90 (=TC90/EC90) [3]: 4.19
- EC50 [4]: 0.61 µM
- EC90 [4]: 3.06 µM
- Absorbance values - cytotoxicity at 24 h (MDCK-II cells; 0 µM): 0.1646 and 0.1811
- Percentages of cytotoxicity at 24 h (MDCK-II cells; 0 µM): 16.58% and 8.22%
- Absorbance values - cytotoxicity at 24 h (MDCK-II cells; 0.01 µM): 0.2048
- Percentages of cytotoxicity at 24 h (MDCK-II cells; 0.01 µM): -3.79%
- Absorbance values - cytotoxicity at 24 h (MDCK-II cells; 0.04 µM): 0.2247 and 0.2292
- Percentages of cytotoxicity at 24 h (MDCK-II cells; 0.04 µM): -13.87% and -16.15%
- Absorbance values - cytotoxicity at 24 h (MDCK-II cells; 0.12 µM): 0.213 and 0.2407
- Percentages of cytotoxicity at 24 h (MDCK-II cells; 0.12 µM): -7.94% and -21.98%
- Absorbance values - cytotoxicity at 24 h (MDCK-II cells; 0.37 µM): 0.2429 and 0.2319
- Percentages of cytotoxicity at 24 h (MDCK-II cells; 0.37 µM): -23.1% and -17.52%
- Absorbance values - cytotoxicity at 24 h (MDCK-II cells; 1.11 µM): 0.227 and 0.2465
- Percentages of cytotoxicity at 24 h (MDCK-II cells; 1.11 µM): -15.04% and -24.92%
- Absorbance values - cytotoxicity at 24 h (MDCK-II cells; 3.33 µM): 0.2005 and 0.1965
- Percentages of cytotoxicity at 24 h (MDCK-II cells; 3.33 µM): -1.61% and 0.42%
- Absorbance values - cytotoxicity at 24 h (MDCK-II cells; 10 µM): 0.107 and 0.1166
- Percentages of cytotoxicity at 24 h (MDCK-II cells; 10 µM): 45.77% and 40.91%

Compound: WTAVQMAVFIHNFKRK [Codivir]
- CC50 at 24 h (in vitro [5]): 43.5 µM
- Absorbance values - cytotoxicity at 24 h (MDCK-II cells; 0.05 µM): 0.0985 and 0.1183 and 0.1389 and 0.1493 and 0.1468 and 0.1612
- Absorbance values - cytotoxicity at 24 h (MDCK-II cells; 0.15 µM): 0.1552 and 0.1707 and 0.1789 and 0.1965 and 0.1896 and 0.2019
- Absorbance values - cytotoxicity at 24 h (MDCK-II cells; 0.46 µM): 0.1522 and 0.1679 and 0.2104 and 0.2062 and 0.1922 and 0.1978
- Absorbance values - cytotoxicity at 24 h (MDCK-II cells; 4.17 µM): 0.2071 and 0.1982 and 0.2203 and 0.2153 and 0.2027 and 0.2054
- Absorbance values - cytotoxicity at 24 h (MDCK-II cells; 12.50 µM): 0.183 and 0.2158 and 0.2057 and 0.2165 and 0.2045 and 0.2113
- Absorbance values - cytotoxicity at 24 h (MDCK-II cells; 25.00 µM): 0.1794 and 0.1713 and 0.1708 and 0.1681 and 0.1845 and 0.1841
- Absorbance values - cytotoxicity at 24 h (MDCK-II cells; 75.00 µM): 0.0422 and 0.0436 and 0.0425 and 0.0421 (2×) and 0.0419
- TC90 (MDCK-II cells; MTT, 24 h): around 100 µM
- cytotoxicity (in words) (MDCK-II cells; highest concentrations tested): Some cytotoxicity
- Percentages of cytotoxicity at 24 h (MDCK-II cells; post infection, 0.05 µM): 24.34% and 25.6% and 18.31%
- Percentages of cytotoxicity at 24 h (MDCK-II cells; post infection, 0.15 µM): 0.42% and 3.91% and -2.32%
- Percentages of cytotoxicity at 24 h (MDCK-II cells; post infection, 0.46 µM): -4.5% and 2.6% and -0.24%
- Percentages of cytotoxicity at 24 h (MDCK-II cells; post infection, 4.17 µM): -9.11% and -2.72% and -4.09%
- Percentages of cytotoxicity at 24 h (MDCK-II cells; post infection, 12.50 µM): -9.72% and -3.64% and -7.08%
- Percentages of cytotoxicity at 24 h (MDCK-II cells; post infection, 25.00 µM): 14.81% and 6.5% and 6.7%
- Percentages of cytotoxicity at 24 h (MDCK-II cells; post infection, 75.00 µM): 78.66% (2×) and 78.77%
- Percentages of cytotoxicity at 24 h (MDCK-II cells; with infection, 0.05 µM): 50.08% and 40.05% and 29.61%
- Percentages of cytotoxicity at 24 h (MDCK-II cells; with infection, 0.15 µM): 21.35% and 13.49% and 9.34%
- Percentages of cytotoxicity at 24 h (MDCK-II cells; with infection, 0.46 µM): 22.87% and 14.91% and -6.63%
- Percentages of cytotoxicity at 24 h (MDCK-II cells; with infection, 4.17 µM): -4.95% and -0.44% and -11.64%
- Percentages of cytotoxicity at 24 h (MDCK-II cells; with infection, 12.50 µM): 7.26% and -9.36% and -4.24%
- Percentages of cytotoxicity at 24 h (MDCK-II cells; with infection, 25.00 µM): 9.08% and 13.19% and 13.44%
- Percentages of cytotoxicity at 24 h (MDCK-II cells; with infection, 75.00 µM): 78.61% and 77.9% and 78.46%
- adverse events / severe adverse events [6]: No adverse events or severe adverse events were detected
- tolerability, side effects [6]: tolerable, exhibits no reported side effects and no harm to immune system, with no adverse events
- vital signs, physical examinations [6]: no significant differences
- blood tests ([6]; relative to baseline): no significant changes relative to the baseline
- EC50 (SARS-CoV2 [2]; 24 h): 12.5 µM
- CC50 at 24 h (in vitro [7]; TC50, text, MDCK-II cells): ~50 µM
- CC50 at 24 h (in vitro [7]; uninfected MDCK-II cells, TC50, post-infection row): 51 µM
- CC50 at 24 h (in vitro [7]; uninfected MDCK-II cells, TC50, with infection row): 49.2 µM
- Absorbance values - cytotoxicity at 24 h (Vero cells; 0.05 uM): 0.1161 and 0.1456 and 0.1448 and 0.1447 and 0.1351
- Percentages of cytotoxicity at 24 h (Vero cells; 0.05 uM): 4.24% and -20.09% and -19.43% and -19.35% and -9.12% and -11.43%
- Absorbance values - cytotoxicity at 24 h (Vero cells; 0.15 uM): 0.1361 and 0.143 and 0.1487 and 0.1479 and 0.1455 and 0.1446
- Percentages of cytotoxicity at 24 h (Vero cells; 0.15 uM): -12.26% and -17.95% and -22.65% and -21.99% and -20.01% and -19.27%
- Absorbance values - cytotoxicity at 24 h (Vero cells; 0.46 uM): 0.1454 and 0.1447 and 0.1452 and 0.1433 and 0.1468 and 0.1493
- Percentages of cytotoxicity at 24 h (Vero cells; 0.46 uM): -19.93% and -19.35% and -19.76% and -18.20% and -21.08% and -23.15%
- Absorbance values - cytotoxicity at 24 h (Vero cells; 4.17 uM): 0.1306 and 0.1426 and 0.1477 and 0.1432 and 0.1433 and 0.1556
- Percentages of cytotoxicity at 24 h (Vero cells; 4.17 uM): -7.72% and -17.62% and -21.83% and -18.12% and -18.20% and -28.34%
- Absorbance values - cytotoxicity at 24 h (Vero cells; 12.50 uM): 0.1196 and 0.1315 and 0.1325 and 0.1324 and 0.1314 and 0.1395
- Percentages of cytotoxicity at 24 h (Vero cells; 12.50 uM): 1.35% and -8.46% and -9.29% and -9.21% and -8.38% and -15.06%
- Absorbance values - cytotoxicity at 24 h (Vero cells; 25.00 uM): 0.0691 and 0.075 and 0.0733 and 0.0763 and 0.0762 and 0.0822
- Percentages of cytotoxicity at 24 h (Vero cells; 25.00 uM): 43.00% and 38.14% and 39.54% and 37.07% and 37.15% and 32.20%
- Absorbance values - cytotoxicity at 24 h (Vero cells; 75.00 uM): 0.0407 and 0.0403 (2×) and 0.0389 and 0.0414 and 0.0421
- Percentages of cytotoxicity at 24 h (Vero cells; 75.00 uM): 66.433% and 66.76% (2×) and 67.91% and 65.85% and 65.27%
- cytotoxicity (in words) (Vero cells; at concentrations giving 90% inhibition of infectivity): minimal cytotoxicity
- cytotoxicity (in words) (Vero cells; highest concentrations tested): Some cytotoxicity
- TC90 (Vero cells; [8]): 143.6 µM
- TC99.9 (Vero cells; [8]): 185.9 µM

Compound: WTAVQMAVFIHNFKRK [INS-HC1]
- patients recovered completely and negative for SARS-CoV-2 at end of study (SARS-CoV-2): Four
- patients discharged from intensive care unit (ICU) to the general ward with almost full recovery (SARS-CoV-2; moderate to severe COVID-19, control group (Atripla only): 14 out of 15 died): 15 patients
